pIC50: −log10 of the molar value.
What follows are molecules tested against T1, fMet-Leu-Phe receptor (Homo sapiens, UniProt P21462) (assay: formyl peptide receptor binders – dose response (AID 519)).
T1 sequence (P21462 whole entry): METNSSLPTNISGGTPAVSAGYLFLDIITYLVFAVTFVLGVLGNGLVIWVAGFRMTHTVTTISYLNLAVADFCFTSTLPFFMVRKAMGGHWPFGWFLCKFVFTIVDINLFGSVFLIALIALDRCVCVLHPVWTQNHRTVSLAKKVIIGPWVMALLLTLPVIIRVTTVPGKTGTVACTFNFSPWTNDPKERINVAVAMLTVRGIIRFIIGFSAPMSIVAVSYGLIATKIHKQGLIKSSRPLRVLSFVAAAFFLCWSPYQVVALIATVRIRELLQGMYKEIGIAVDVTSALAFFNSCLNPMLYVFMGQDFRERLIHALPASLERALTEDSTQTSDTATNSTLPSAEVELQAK

Structure (SMILES)	pIC50
COc1ccc(C2C(C(=O)c3ccco3)C(=O)C(=O)N2Cc2cccnc2)cc1OC (stereo not drawn) [2-(3,4-dimethoxyphenyl)-3-(furan-2-carbonyl)-4-hydroxy-1-(pyridin-3-ylmethyl)-2H-pyrrol-5-one]	< 4.18
COc1cc(C2C(C(=O)c3ccco3)C(=O)C(=O)N2CCc2ccccc2)ccc1O (stereo not drawn) [3-(furan-2-carbonyl)-4-hydroxy-2-(4-hydroxy-3-methoxyphenyl)-1-(2-phenylethyl)-2H-pyrrol-5-one]	< 4.18
CCCOc1ccc(C2C(C(=O)c3ccc(C)o3)C(=O)C(=O)N2CCCn2ccnc2)cc1 (stereo not drawn) [1-(3-imidazol-1-ylpropyl)-3-(5-methylfuran-2-yl)carbonyl-4-oxidanyl-2-(4-propoxyphenyl)-2H-pyrrol-5-one]	4.86
COc1cccc(C2C(C(=O)c3ccc(OC)c(OC)c3)C(=O)C(=O)N2c2cc(C)on2)c1 (stereo not drawn) [(4E)-4-[(3,4-dimethoxyphenyl)-hydroxy-methylene]-5-(3-methoxyphenyl)-1-(5-methylisoxazol-3-yl)pyrrolidine-2,3-quinone]	< 4.18
COc1cc(C2C(C(=O)c3ccc4c(c3)CC(C)O4)C(=O)C(=O)N2CCCn2ccnc2)ccc1O (stereo not drawn) [(4E)-1-(3-imidazol-1-ylpropyl)-5-(3-methoxy-4-oxidanyl-phenyl)-4-[(2-methyl-2,3-dihydro-1-benzofuran-5-yl)-oxidanyl-methylidene]pyrrolidine-2,3-dione]	4.24
COC(=O)c1ccc(C2C(C(=O)c3ccc(OC)cc3)C(=O)C(=O)N2Cc2ccco2)cc1 (stereo not drawn) [4-[(3Z)-1-(2-furanylmethyl)-3-[hydroxy-(4-methoxyphenyl)methylidene]-4,5-dioxo-2-pyrrolidinyl]benzoic acid methyl ester]	4.37
CCCOc1ccc(C2C(C(=O)c3ccco3)C(=O)C(=O)N2CCCn2ccnc2)cc1 (stereo not drawn) [3-(furan-2-carbonyl)-4-hydroxy-1-(3-imidazol-1-ylpropyl)-2-(4-propoxyphenyl)-2H-pyrrol-5-one]	< 4.18
COc1ccc(OC)c(C2C(C(=O)c3ccccc3)C(=O)C(=O)N2Cc2ccco2)c1 (stereo not drawn) [(4Z)-5-(2,5-dimethoxyphenyl)-1-(2-furanylmethyl)-4-[hydroxy(phenyl)methylidene]pyrrolidine-2,3-dione]	5.47
CC1Cc2cc(C(=O)C3C(=O)C(=O)N(CCN4CCOCC4)C3c3ccccc3F)ccc2O1 (stereo not drawn) [(4E)-5-(2-fluorophenyl)-4-[(2-methyl-2,3-dihydro-1-benzofuran-5-yl)-oxidanyl-methylidene]-1-(2-morpholin-4-ylethyl)pyrrolidine-2,3-dione]	< 4.18
O=C1Nc2ccccc2/C1=C1/SC(=S)N(CC2CCCO2)C1=O (stereo not drawn) [(5Z)-5-(2-ketoindolin-3-ylidene)-3-(tetrahydrofurfuryl)-2-thioxo-thiazolidin-4-one]	< 4.18
COc1ccccc1C1C(C(=O)c2ccccc2)C(=O)C(=O)N1CC(C)O (stereo not drawn) [(4Z)-4-[hydroxy(phenyl)methylene]-1-(2-hydroxypropyl)-5-(2-methoxyphenyl)pyrrolidine-2,3-quinone]	4.61
COCCN1C(=O)C(=O)C(C(=O)c2cccs2)C1c1ccccc1 (stereo not drawn) [1-(2-methoxyethyl)-4-oxidanyl-2-phenyl-3-thiophen-2-ylcarbonyl-2H-pyrrol-5-one]	< 4.18
CCOc1ccc(C2C(C(=O)c3ccco3)C(=O)C(=O)N2CCCn2ccnc2)cc1 (stereo not drawn) [2-(4-ethoxyphenyl)-3-(furan-2-carbonyl)-4-hydroxy-1-(3-imidazol-1-ylpropyl)-2H-pyrrol-5-one]	5.00
CCOc1cc(C2C(C(=O)c3ccc(C)o3)C(=O)C(=O)N2CCc2ccccc2)ccc1O (stereo not drawn) [2-(3-ethoxy-4-hydroxyphenyl)-4-hydroxy-3-(5-methylfuran-2-carbonyl)-1-(2-phenylethyl)-2H-pyrrol-5-one]	4.52
COc1ccc(C2C(C(=O)c3ccco3)C(=O)C(=O)N2CCc2ccccc2)cc1OC (stereo not drawn) [2-(3,4-dimethoxyphenyl)-3-(furan-2-carbonyl)-4-hydroxy-1-(2-phenylethyl)-2H-pyrrol-5-one]	4.43
CSCCC1c2c(-c3cccs3)n[nH]c2OC(=N)C1C#N (stereo not drawn) [6-azanyl-4-(2-methylsulfanylethyl)-3-thiophen-2-yl-2,4-dihydropyrano[2,3-c]pyrazole-5-carbonitrile]	< 4.18
Cc1ccc(C2C(C(=O)c3ccc(Cl)cc3)C(=O)C(=O)N2CC2CCCO2)o1 (stereo not drawn) [(4Z)-4-[(4-chlorophenyl)-hydroxy-methylene]-5-(5-methyl-2-furyl)-1-(tetrahydrofurfuryl)pyrrolidine-2,3-quinone]	4.94
Cc1cc(N2C(=O)C(=O)C(C(=O)c3ccco3)C2c2cccnc2)no1 (stereo not drawn) [3-(furan-2-carbonyl)-4-hydroxy-1-(5-methyl-1,2-oxazol-3-yl)-2-pyridin-3-yl-2H-pyrrol-5-one]	< 4.18
COc1cccc(C(=O)C2C(=O)C(=O)N(Cc3cccnc3)C2c2ccco2)c1 (stereo not drawn) [(4Z)-5-(2-furanyl)-4-[hydroxy-(3-methoxyphenyl)methylidene]-1-(3-pyridinylmethyl)pyrrolidine-2,3-dione]	< 4.18

Structure (SMILES)	pIC50
COC(=O)Cc1n[nH]c2c1C(C1C=CCCC1)C(C#N)C(=N)O2 (stereo not drawn) [2-[6-amino-5-cyano-4-(1-cyclohex-2-enyl)-2,4-dihydropyrano[2,3-c]pyrazol-3-yl]acetic acid methyl ester]	< 4.18
O=C1C(=O)N(Cc2ccco2)C(c2ccccc2)C1C(=O)c1cccs1 (stereo not drawn) [1-(2-furanylmethyl)-4-hydroxy-3-[oxo(thiophen-2-yl)methyl]-2-phenyl-2H-pyrrol-5-one]	4.45
Cc1ccc(C2C(C(=O)c3ccc(Br)cc3)C(=O)C(=O)N2Cc2ccco2)o1 (stereo not drawn) [(4Z)-4-[(4-bromophenyl)-hydroxy-methylene]-1-(2-furfuryl)-5-(5-methyl-2-furyl)pyrrolidine-2,3-quinone]	< 4.18
Cc1nc2c(C)cccn2c1C(=O)C1C(=O)C(=O)N(CCN2CCOCC2)C1c1cccs1 (stereo not drawn) [(4E)-4-[(2,8-dimethyl-3-imidazo[1,2-a]pyridinyl)-hydroxymethylidene]-1-[2-(4-morpholinyl)ethyl]-5-thiophen-2-ylpyrrolidine-2,3-dione]	< 4.18
CCOc1cc(C2C(C(=O)c3ccco3)C(=O)C(=O)N2CCc2ccccc2)ccc1O (stereo not drawn) [2-(3-ethoxy-4-hydroxyphenyl)-3-(furan-2-carbonyl)-4-hydroxy-1-(2-phenylethyl)-2H-pyrrol-5-one]	< 4.18
COc1ccccc1C1C(C(=O)c2ccccc2)C(=O)C(=O)N1CC(C)C (stereo not drawn) [(4Z)-4-[hydroxy(phenyl)methylene]-1-isobutyl-5-(2-methoxyphenyl)pyrrolidine-2,3-quinone]	5.26
CCOc1ccc(C2C(C(=O)c3cccs3)C(=O)C(=O)N2CCCn2ccnc2)cc1 (stereo not drawn) [2-(4-ethoxyphenyl)-1-(3-imidazol-1-ylpropyl)-4-oxidanyl-3-thiophen-2-ylcarbonyl-2H-pyrrol-5-one]	4.24
COc1ccc(OC)c(C2C(C(=O)c3cccs3)C(=O)C(=O)N2c2cc(C)on2)c1 (stereo not drawn) [2-(2,5-dimethoxyphenyl)-1-(5-methyl-1,2-oxazol-3-yl)-4-oxidanyl-3-thiophen-2-ylcarbonyl-2H-pyrrol-5-one]	< 4.18
CCN(CC)c1ccc(C=NC(C#N)C(=N)C#N)cc1 (stereo not drawn) [SMR000023871]	< 4.18
COc1cc(C2C(C(=O)c3ccc(C)o3)C(=O)C(=O)N2CCc2ccccc2)ccc1O (stereo not drawn) [2-(3-methoxy-4-oxidanyl-phenyl)-3-(5-methylfuran-2-yl)carbonyl-4-oxidanyl-1-(2-phenylethyl)-2H-pyrrol-5-one]	4.71
Cc1nc(C)c(C(=O)C2C(=O)C(=O)N(CCCn3ccnc3)C2c2ccc(Cl)cc2)s1 (stereo not drawn) [2-(4-chlorophenyl)-3-(2,4-dimethyl-1,3-thiazole-5-carbonyl)-4-hydroxy-1-(3-imidazol-1-ylpropyl)-2H-pyrrol-5-one]	< 4.18
COc1ccc(C(=O)C2C(=O)C(=O)N(CCN3CCOCC3)C2c2ccc(C)cc2)cc1 (stereo not drawn) [(4Z)-4-[(4-methoxyphenyl)-oxidanyl-methylidene]-5-(4-methylphenyl)-1-(2-morpholin-4-ylethyl)pyrrolidine-2,3-dione]	< 4.18
COc1ccc(C2C(C(=O)c3ccccc3)C(=O)C(=O)N2CC(C)O)c(OC)c1 (stereo not drawn) [(4Z)-5-(2,4-dimethoxyphenyl)-4-[hydroxy(phenyl)methylene]-1-(2-hydroxypropyl)pyrrolidine-2,3-quinone]	4.41
Cc1ccc(C(=O)C2C(=O)C(=O)N(CC(C)O)C2c2ccc(N(C)C)cc2)cc1 (stereo not drawn) [(4E)-5-[4-(dimethylamino)phenyl]-1-(2-hydroxypropyl)-4-[hydroxy(p-tolyl)methylene]pyrrolidine-2,3-quinone]	< 4.18
COc1ccc(C(=O)C2C(=O)C(=O)N(Cc3ccco3)C2c2ccc(OC)cc2OC)cc1 (stereo not drawn) [(4E)-5-(2,4-dimethoxyphenyl)-1-(2-furanylmethyl)-4-[hydroxy-(4-methoxyphenyl)methylidene]pyrrolidine-2,3-dione]	< 4.18
COc1cccc2cc(C(=O)C3C(=O)C(=O)N(Cc4ccco4)C3c3cccnc3)oc12 (stereo not drawn) [1-(2-furanylmethyl)-4-hydroxy-3-[(7-methoxy-2-benzofuranyl)-oxomethyl]-2-(3-pyridinyl)-2H-pyrrol-5-one]	< 4.18
COCCCN1C(=O)C(=O)C(C(=O)c2ccc3c(c2)CC(C)O3)C1c1cccnc1 (stereo not drawn) [(4E)-1-(3-methoxypropyl)-4-[(2-methyl-2,3-dihydro-1-benzofuran-5-yl)-oxidanyl-methylidene]-5-pyridin-3-yl-pyrrolidine-2,3-dione]	< 4.18
O=C1C(=O)N(c2ncccn2)C(c2ccc(Cl)c(Cl)c2)C1C(=O)c1ccco1 (stereo not drawn) [2-(3,4-dichlorophenyl)-3-(furan-2-carbonyl)-4-hydroxy-1-pyrimidin-2-yl-2H-pyrrol-5-one]	< 4.18
O=C1CCCC(=O)C1C(C#Cc1ccccc1)C1C(=O)CCCC1=O [3-hydroxy-2-[1-(2-hydroxy-6-keto-cyclohexen-1-yl)-3-phenyl-prop-2-ynyl]cyclohex-2-en-1-one]	< 4.18

Reference: BindingDB's records for doi:10.7270/Q2J67FB5 (Nmmlsc, 2007)
